Results on 13 molecules are retold here after patent US20100137315A1, “Sphingosine Kinase Inhibitors and Methods of Their Use” (APOGEE BIOTECHNOLOGY CORPORATION, priority 2005, published 2010).

Assay [1] relates to endogenous SK in MDA-MB-231 human breast carcinoma cells. The experiment in a line: Intact cell assay of endogenous SK ([3H]sphingosine to [3H]S1P). The assay is classed as cell-based. As to conditions: MDA-MB-231 cells, 20 μg/ml compound. Here is the method:
We have previously described an intact cell assay where, following treatment with a test compound, MDA-MB-231 human breast carcinoma cells are incubated with [^3H]sphingosine at a final concentration of 1 μM (French et al., 2003, Cancer Res 63: 5962). The cells take up the exogenous [^3H]sphingosine and convert it to [^3H]S1P through the action of endogenous SK. The resulting [^3H]S1P is isolated via charge-based separation as indicated above. […] For potency studies, MDA-MB-231 cells were exposure to varying concentrations of a test Compound and then assayed for conversion of [^3H]sphingosine to [^3H]S1P.

Assay [2] has as its system MCF-7 human breast adenocarcinoma cells. The experiment in a line: Cytotoxicity, SRB assay, 48 h. The assay is classed as cell-based. Conditions: Homo sapiens, MCF7; Table 6; 48 h, SRB, inhibition of cell proliferation; read-out: MCF-7 IC50. Here is the method:
To further assess the biological efficacies of the Compounds in intact cells, each Compound was evaluated for cytotoxicity using human cancer cell lines. These experiments followed methods that have been extensively used. Cell lines tested included MCF-7 human breast adenocarcinoma cells. The indicated cell lines were treated with varying doses of the test Compound for 48 h. Cell survival was then determined using the SRB binding assay (Skehan et al., 1990, J Natl Cancer Inst 82: 1107), and the concentration of compound that inhibited proliferation by 50% (the IC50) was calculated. Values (in μM) represent the mean±sd for replicate trials.

In assay [3] the target is T1, recombinant human SK (Homo sapiens, UniProt Q9NYA1).
T1 construct: glutathione-S-transferase (GST) (N); made in house; host or cells: bacteria (pGEX vector)
The experiment in a line: Inhibition of recombinant human SK, LC/MS/MS assay. Conditions: 6 μg/ml compound. The assay is classed as biochemical. As for the experimental part:
(§1) An assay for identifying inhibitors of recombinant human SK has been established (French et al., 2003, Cancer Res 63: 5962). cDNA for human SK was subcloned into a pGEX bacterial expression vector, which results in expression of the enzyme as a fusion protein with glutathione-S-transferase, and the fusion protein is then purified on a column of immobilized glutathione. SK activity is measured by incubation of the recombinant SK with [^3H]sphingosine and 1 mM ATP under defined conditions, followed by extraction of the assay mixture with chloroform:methanol under basic conditions. […] Radioactivity in aliquots of the aqueous phase is then quantified as a measure of [^3H]S1P formation. There is a low background level of partitioning of [^3H]sphingosine into the aqueous phase, and addition of the recombinant SK greatly increases the formation of [^3H]S1P.
In an alternate assay procedure, the recombinant human SK was incubated with unlabeled sphingosine and ATP as described above. After 30 minutes, the reactions were terminated by the addition of acetonitrile to directly extract the newly synthesized S1P. The amount of S1P in the samples is then quantified as follows. C17 base D-erythro-sphingosine and C17 S1P are used as internal standards for sphingosine and S1P, respectively. These seventeen-carbon fatty acid-linked sphingolipids are not naturally produced, making these analogs excellent standards. The lipids are then fractionation by High-Performance Liquid Chromatography using a C8-reverse phase column eluted with 1 mM methanolic ammonium formate/2 mM aqueous ammonium formate. A Finnigan LCQ Classic LC-MS/MS is used in the multiple reaction monitoring positive ionization mode to acquire ions at m/z of 300 (precursor ion)→282 (product ion) for sphingosine and 380→264 for S1P. Calibration curves are generated by plotting the peak area ratios of the synthetic standards for each sphingolipid, and used to determine the normalized amounts of sphingosine and S1P in the samples.
Each Compound of this invention was tested for its ability to inhibit recombinant SK using the LC/MS/MS assay described above. Typically, the Compounds were individually dissolved in dimethylsulfoxide and tested at a final concentration of 6 micrograms/ml.

Assay [4] has as its target T1, recombinant human SK. The assay is described as follows: Recombinant human SK assay with [3H]sphingosine. The assay is classed as biochemical. Conditions: positive control. Here is the method: as §1

T1 sequence (Q9NYA1 whole entry): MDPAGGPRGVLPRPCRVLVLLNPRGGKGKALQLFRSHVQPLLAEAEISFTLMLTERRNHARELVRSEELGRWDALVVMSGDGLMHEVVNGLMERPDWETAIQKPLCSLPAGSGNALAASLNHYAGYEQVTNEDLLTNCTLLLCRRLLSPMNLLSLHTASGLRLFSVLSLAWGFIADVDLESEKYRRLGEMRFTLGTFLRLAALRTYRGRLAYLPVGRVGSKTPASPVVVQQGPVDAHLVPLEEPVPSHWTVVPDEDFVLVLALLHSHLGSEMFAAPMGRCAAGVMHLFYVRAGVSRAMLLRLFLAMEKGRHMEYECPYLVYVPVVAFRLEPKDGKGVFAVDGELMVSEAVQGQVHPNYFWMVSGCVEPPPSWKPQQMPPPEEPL

With `CCCCCCCCCCCCCCCC(=O)Nc1nc(-c2ccc(Cl)cc2)cs1` [Compound 3, Hexadecanoic acid [4-(4-chloro-phenyl)-thiazol-2-yl]-amide], the “Cellular S1P (% inhibition)” value in assay [1] was determined as 34%. Moreover, in assay [2], the IC50 amounted to 111 µM. Also, the inhibition at 6 µg/mL in assay [3] was 88%.

On to `COc1cc(C=CC(=O)Nc2nc(-c3ccc(Cl)cc3)cs2)ccc1OC(C)=O` [Compound 10, Acetic acid 4-{2-[4-(4-chloro-phenyl)-thiazol-2-ylcarbamoyl]-vinyl}-2-methoxy-phenyl ester], for which, in assay [2], the IC50 worked out at 24 µM. The inhibition at 6 µg/mL in assay [3] is 100%.

Regarding `CCCC(=O)Oc1ccccc1C=CC(=O)Nc1nc(-c2ccc(Cl)cc2)cs1` [Compound 13, Butyric acid 2-{2-[4-(4-chloro-phenyl)-thiazol-2-ylcarbamoyl]-vinyl}-phenyl ester], in assay [2], the IC50 is 2.3 µM. The inhibition at 6 µg/mL in assay [3] worked out at 0%.

With `CCCC(=O)Oc1cccc(C=CC(=O)Nc2nc(-c3ccc(Cl)cc3)cs2)c1` [Compound 14, Butyric acid 3-{2-[4-(4-chloro-phenyl)-thiazol-2-ylcarbamoyl]-vinyl}-phenyl ester], the IC50 in assay [2] turned out to be 2.9 µM. In assay [3], the inhibition at 6 µg/mL is 0%.

Regarding `CCCC(=O)Oc1ccc(C=CC(=O)Nc2nc(-c3ccc(Cl)cc3)cs2)cc1` [Compound 15, Butyric acid 4-{2-[4-(4-chloro-phenyl)-thiazol-2-ylcarbamoyl]-vinyl}-phenyl ester], the IC50 in assay [2] was 2.9 µM. For the same molecule, the inhibition at 6 µg/mL in assay [3] was found to be 73%.

Consider `CCCC(=O)Oc1ccc(CCC(=O)Nc2nc(-c3ccc(Cl)cc3)cs2)cc1OC` [Compound 29, Butyric acid 4-{2-[4-(4-chloro-phenyl)-thiazol-2-ylcarbamoyl]-ethyl}-2-methoxy-phenyl ester], for which the IC50 in assay [2] turned out to be 26 µM. Besides, the inhibition at 6 µg/mL in assay [3] is 0%.

Consider `CCCC(=O)Oc1ccc(CC(=O)Nc2nc(-c3ccc(Cl)cc3)cs2)cc1[N+](=O)[O-]` [Compound 30, Butyric acid 4-{[4-(4-chloro-phenyl)-thiazol-2-ylcarbamoyl]-methyl}-2-nitro-phenyl ester], for which, in assay [2], the concentration for half-maximal inhibition (IC50) amounted to 32 µM. Moreover, the inhibition at 6 µg/mL in assay [3] turned out to be 0%.

With `O=C(NCc1ccncc1)c1nc(-c2ccc(Cl)cc2)cs1` [Compound 34, 4-(4-Chloro-phenyl)thiazole-2-carboxylic acid (pyridin-4-ylmethyl)amide], the concentration for half-maximal inhibition (IC50) in assay [2] is 38 µM. For the same molecule, the inhibition at 6 µg/mL in assay [3] amounted to 0%.

In the case of `CN(C)c1ccc(CNC(=O)c2nc(-c3ccc(Cl)cc3)cs2)cc1` [Compound 35, 4-(4-Chloro-phenyl)-thiazole-2-carboxylic acid 4-dimethylamino-benzylamide], the IC50 in assay [2] worked out at 130 µM. Moreover, the inhibition at 6 µg/mL in assay [3] stood at 80%.

Turning to `Clc1ccc(-c2csc(N(CCCc3ccccc3)CCCc3ccccc3)n2)cc1` [Compound 71, [4-(4-Chloro-phenyl)-thiazol-2-yl]-bis-(3-phenyl-propyl)-amine], in assay [2], the IC50 stood at 111 µM. In addition, the inhibition at 6 µg/mL in assay [3] is 44%.

For the molecule `Clc1ccc(-c2csc(N(Cc3ccccc3)Cc3ccccc3)n2)cc1` [Compound 72, Dibenzyl-[4-(4-chloro-phenyl)-thiazol-2-yl]-amine], the IC50 in assay [2] came to 127 µM. Also, the inhibition at 6 µg/mL in assay [3] is 79%.

Regarding `O=C(Nc1nc2cc(Cl)ccc2o1)c1cccc(F)c1` [Compound 97, N-(5-Chloro-benzooxazol-2-yl)-3-fluoro-benzamide], the IC50 in assay [2] worked out at 1.7 µM. For the same molecule, the inhibition at 6 µg/mL in assay [3] amounted to 71%.

`CCCCCCCCCCCCC/C=C/[C@@H](O)[C@H](CO)N(C)C` [DMS, D-erythro-N,N-dimethylsphingosine]: the “concentrations at which SK activity is completely inhibited” value in assay [4] is given as “above 25 μM”.
